Several values for one entry are separate records, joined by “and”; a condition that tells them apart may be missing. Equal values may be shown once.
System: MCF-7 human breast cancer cells
Test: CellTiter Glo assay
Settings: six wells and Average
Description: MCF-7 human breast cancer cells were obtained and cultured for 3 passages in recommended media (DMEM medium, F12-K medium, McCoys 5a medium) and 10% fetal bovine serum (FBS). Cells were harvested by trypsinization, counted on ViCell, then plated at a density of 20,000 cells per well in ten clear bottom Perkin Elmer 96 well view plates and ten clear Costar 96 well plates. Oxyrase® and substrate were added to wells in quadruplicate: a first column of 4 wells had cells alone in each well; a second column of 4 wells contained Oxyrase® (20 units/mL) and cells; a third column of 4 wells contained L-Lactate at 40 mM and cells; and a fourth column of 4 wells contained cells and buffer, the latter added at equal volume to Oxyrase®. Five Perkin Elmer 96 well view plates and five clear Costar 96 well plates were placed in an incubator at 37 degrees Celsius and supplied with 5% carbon dioxide and 10% humidity. The remaining plates were placed in an incubator in anaerobic boxes containing oxygen depleting packets.
On days 0, 1, 3, 5, and 7, one Perkin Elmer 96 well view plate each from aerobic and anaerobic incubators were removed and a CellTiter Glo® assay was performed. CellTiter Glo® reagents were thawed at room temperature and mixed just before being added to each plate. Equal volume (maximum 125 μL) of CellTiter Glo® reagent was added to the plate and the plate incubated in the dark for 15 minutes. Plates were read using a Wallac Victor2 plate reader using the luminescence range

L-Lactate [Substrate + Buffer]
CellTiter Glo luminescence (number of cells) (MCF-7, Day 0, Substrate + Buffer): 376738 RLU and 379461 RLU and 340018 RLU and 370831 RLU and 395464 RLU and 380015 RLU
CellTiter Glo luminescence (number of cells) (MCF-7, Day 1, Substrate + Buffer): 136132 RLU and 135475 RLU and 224766 RLU and 187489 RLU and 171303 RLU and 142850 RLU
CellTiter Glo luminescence (number of cells) (MCF-7, Day 5, Substrate + Buffer): 180844 RLU and 214489 RLU and 155311 RLU and 175921 RLU and 183640 RLU and 185254 RLU
CellTiter Glo luminescence (number of cells) (MCF-7, Day 7, Substrate + Buffer): 147731 RLU and 163281 RLU and 149128 RLU and 150112 RLU and 139841 RLU and 176875 RLU
